# Target: T1, STAT6 (Homo sapiens, UniProt P42226)
# T1 sequence (P42226 1-847): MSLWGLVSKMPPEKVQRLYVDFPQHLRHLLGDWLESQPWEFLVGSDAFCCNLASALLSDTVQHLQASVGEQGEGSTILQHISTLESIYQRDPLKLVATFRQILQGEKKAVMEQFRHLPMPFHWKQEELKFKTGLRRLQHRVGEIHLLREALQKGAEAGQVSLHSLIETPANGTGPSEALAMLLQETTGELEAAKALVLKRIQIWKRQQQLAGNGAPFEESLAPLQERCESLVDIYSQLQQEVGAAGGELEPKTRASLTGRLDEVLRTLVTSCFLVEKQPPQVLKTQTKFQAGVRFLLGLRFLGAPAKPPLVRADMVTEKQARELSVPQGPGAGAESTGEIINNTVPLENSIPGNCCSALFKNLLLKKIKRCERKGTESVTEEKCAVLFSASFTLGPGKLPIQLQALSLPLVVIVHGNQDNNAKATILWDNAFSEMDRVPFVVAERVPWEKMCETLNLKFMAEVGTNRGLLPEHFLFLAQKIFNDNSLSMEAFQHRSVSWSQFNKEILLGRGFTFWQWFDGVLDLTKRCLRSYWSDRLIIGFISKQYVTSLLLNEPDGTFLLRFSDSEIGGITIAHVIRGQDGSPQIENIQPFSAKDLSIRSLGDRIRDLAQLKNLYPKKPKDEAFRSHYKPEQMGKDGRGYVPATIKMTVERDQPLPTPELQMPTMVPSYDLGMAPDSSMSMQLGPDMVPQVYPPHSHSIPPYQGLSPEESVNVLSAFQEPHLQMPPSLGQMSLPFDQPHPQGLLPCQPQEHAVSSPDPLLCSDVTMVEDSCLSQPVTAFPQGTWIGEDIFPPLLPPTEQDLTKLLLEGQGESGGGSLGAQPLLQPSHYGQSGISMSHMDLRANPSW
# Assay: Competitive fluorescence polarization (FP) assay, STAT6 SH2 domain
# Format: binding
# Settings: for Ki: Ki derived from IC50; for IC50: mean ± SD, n = 3
# Procedure: Fluorescence polarization assays
# Competitive fluorescence polarization assays, which measure the abilities of test compounds (dissolved in DMSO) to displace a fluorescent-labeled peptide from the SH2 domain of a STAT protein, were carried out essentially as described. Proteins were used at the following final concentrations: 23 nM or 28 nM for STAT4; between 56 nM and 91 nM for STAT1; 107 nM or 110 nM for STAT3; between 131 nM and 177 nM for STAT5a; between 62 nM and 85 nM for STAT5b; and 101 nM or 106 nM for STAT6. These concentrations represent the approximate […]
# dissociation constant for peptide binding of the respective protein batches used in the assays.
# The following peptides were used: 5-carboxyfluorescein-GpYLPQNID-OH for STAT4; 5-carboxyfluorescein-GpYDKPHVL for STAT1; 5-carboxyfluorescein-GpYLPQTV-NH2 for STAT3; 5-carboxyfluorescein-GpYLVLDKW for STAT5a/b, and 5-carboxyfluorescein- […]
# Gp[…]-OH for STAT6. All peptides were used at a final concentration of 10 nM. The buffer consisted of 10 mM Tris (pH 8.0), 50 mM NaCl, 1 mM EDTA, 1 mM DTT, 0 .1 % Nonidet P-40 substitute, and 2 % DMSO. After incubation of protein and test compound for 1 h at room temperature, the fluorescent -labeled peptide was added. Samples were transferred to 384 - well microtiter plates and fluorescence polarization was read after an additional 60 min of incubation time. Measurements were performed in triplicate. Percent binding was calculated based on a logarithmic curve fit using OriginPro 8G software. IC 50 values were converted to Ki-values via the published equation[3] using the corresponding Excel spread sheet […]
# https://websites.umich.edu/~shaomengwanglab/software/calc_ki/index.html .
# Error bars represent standard deviations. Ligand efficiencies (LE) were calculated by the formula LE = -1,37 x log Ki / number of non-hydrogen atoms.[4] […]
SMILES,Ki [µM],IC50 [µM]
"O=P(O)(O)Oc1ccc(-c2ccccc2)cc1 [Compound 1, para‐biphenyl phosphate]",7.3 ± 0.4,15 ± 1
O=P(O)(O)Oc1ccc(-c2ccc3ccccc3c2)cc1 [Compound 6g],9.3 ± 1.1,19 ± 2
O=P(O)(O)Oc1ccc(-c2ccccc2)cc1F [Compound 6h],46 ± 3,90 ± 7
O=P(O)(O)Oc1ccc(-c2ccc3ccccc3c2)cc1F [Compound 6m],29 ± 2,57 ± 4
O=P(O)(O)C(F)(F)c1ccc(-c2ccc3ccccc3c2)cc1F [Compound 8a],15 ± 2,30 ± 3
Cc1cc(-c2ccc(C(F)(F)P(=O)(O)O)c(F)c2)cs1 [Compound 8k],13 ± 1,26 ± 2

# Source: PMC12087874, “Biaryl Phosphates and Phosphonates as Selective Inhibitors of the Transcription Factor STAT4” (Angewandte Chemie (International Ed. in English), 2025)
